Measurements from US9050346B2, “Bromodomain inhibitors” (AbbVie Inc., priority 2013, dated 2015).
pEC50, pKi: −log10 of the molar value.

What was measured:
BRD4 (BDI_K57-E168) = target: T1, BRD4 (BDI_K57-E168) (Homo sapiens, UniProt O60885); test: TR-FRET bromodomain binding assay, BRD4 first bromodomain; conditions: His-tagged BD1, 100 nM Alexa647 probe; Ki calculated from IC50; dilution protocol A-G
T1 construct: BD1: amino acids K57-E168; made in house
Outline: (§1)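 His-tagged BRD4 BD1 (K57-E168) or BD2 (8 nM) with Eu-anti-His antibody and Alexa647-labeled BET-inhibitor probe (100 nM for BDI, 30 nM for BDII), pH 6.0 phosphate buffer, 2% DMSO, 1 h at room temperature. TR-FRET (Ex 340, Em 495/520); IC50 by 4-parameter fit, converted to Ki using probe Kd and concentration.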

BRD4 (BDII_E352-M457) = target: T2, BRD4 (BDII_E352-M457) (Homo sapiens, UniProt O60885); test: TR-FRET bromodomain binding assay, BRD4 second bromodomain
T2 construct: made in house
Outline: as §1

[1] = system: breast cancer cell line MX-1; test: MX-1 cell line proliferation assay (3-day, Cell Titer Glo); format: cell-based; conditions: Homo sapiens, MX1, MX-1 cells, 72 h, top concentration 3 μM, read-out: Cellular proliferation: EC50
Experimental: The impact of compounds of the Examples on cancer cell proliferation was determined using the breast cancer cell line MX-1 (ATCC) in a 3-day proliferation assay and the data are reported in Table 1. MX-1 cells were maintained in RPMI 1640 medium (Sigma) supplemented with 10% FBS at 37 C.° and an atmosphere of 5% CO2. For compound testing, MX-1 cells were plated in 96-well black bottom plates at a density of 5000 cells/well in 90 μL of culture media and incubated at 37° overnight to allow cell adhesion and spreading. Compound dilution series were prepared in DMSO via a 3-fold serial dilution from 3 mM to 0.1 μM. The DMSO dilution series were then diluted 1:100 in phosphate buffered saline, and 10 μL of the resulted solution were added to the appropriate wells of the MX-1 cell plate. The final compound concentrations in the wells were 3, 1, 0.3, 0.1, 0.03, 0.01, 0.003, 0.001, 0.0003 and 0.0001 μM.
Luminescence readings from the Cell Titer Glo assay were normalized to the DMSO treated cells and analyzed using the GraphPad Prism software with sigmoidal curve fitting to obtain EC50s. The minimum significant ratio (MSR) was determined to evaluate assay reproducibility (Eastwood et al., (2006) J Biomol Screen, 11: 253-261).

Compound	pKi (BRD4 (BDI_K57-E168))	pKi (BRD4 (BDII_E352-M457))	pEC50 [1]
Cc1cc(-c2ccc(-c3[nH]c(C)c4c(=O)[nH]ncc34)cc2)[nH]n1 [Example 83, 7-methyl-5-[4-(3-methyl-1H-pyrazol-5-yl)phenyl]-2,6-dihydro-1H-pyrrolo[3,4-d]pyridazin-1-one]	6.90	6.20	5.76
Cc1[nH]c(-c2ccccc2Oc2ccccc2)c2cc(C(=O)NCC3CCOC3)[nH]c(=O)c12 (stereo not drawn) [Example 36, 3-methyl-4-oxo-1-(2-phenoxyphenyl)-N-(tetrahydrofuran-3-ylmethyl)-4,5-dihydro-2H-pyrrolo[3,4-c]pyridine-6-carboxamide]	8.05	7.68	6.73
CCOC(=O)c1cc2c(-c3cc(F)ccc3OC3CCCCC3)[nH]c(C)c2c(=O)[nH]1 [Example 48, ethyl 1-[2-(cyclohexyloxy)-5-fluorophenyl]-3-methyl-4-oxo-4,5-dihydro-2H-pyrrolo[3,4-c]pyridine-6-carboxylate]	8.30	7.02	6.86
Cc1[nH]c(-c2ccccc2Oc2ccccc2)c2cc(C(=O)NC3CCN(C)CC3)[nH]c(=O)c12 [Example 35, 3-methyl-N-(1-methylpiperidin-4-yl)-4-oxo-1-(2-phenoxyphenyl)-4,5-dihydro-2H-pyrrolo[3,4-c]pyridine-6-carboxamide]	8.28	7.31	7.27
Cc1[nH]c(-c2cc(NS(=O)(=O)CC(F)(F)F)ccc2Oc2ccccc2)c2cn[nH]c(=O)c12 [Example 76, 2,2,2-trifluoro-N-[3-(7-methyl-1-oxo-2,6-dihydro-1H-pyrrolo[3,4-d]pyridazin-5-yl)-4-phenoxyphenyl]ethanesulfonamide]	8.24	7.79	6.39
Cc1[nH]c(-c2ccccc2Oc2ccccc2)c2cc(C(=O)NC[C@H]3CCNC3)[nH]c(=O)c12 [Example 58, (S)-3-methyl-4-oxo-1-(2-phenoxyphenyl)-N-(pyrrolidin-3-ylmethyl)-4,5-dihydro-2H-pyrrolo[3,4-c]pyridine-6-carboxamide]	8.69	7.80	6.48
COC(=O)c1cc2c(-c3cc(NS(C)(=O)=O)ccc3Oc3ccccc3)[nH]c(C)c2c(=O)[nH]1 [Example 3, methyl 3-methyl-1-(5-(methylsulfonamido)-2-phenoxyphenyl)-4-oxo-4,5-dihydro-2H-pyrrolo[3,4-c]pyridine-6-carboxylate]	8.48	7.70	7.38
CCOC(=O)c1cc2c(-c3ccccc3Oc3ccc(F)cc3F)[nH]c(C)c2c(=O)[nH]1 [Example 21, ethyl 1-[2-(2,4-difluorophenoxy)phenyl]-3-methyl-4-oxo-4,5-dihydro-2H-pyrrolo[3,4-c]pyridine-6-carboxylate]	7.61	6.55	6.98
Cc1[nH]c(-c2cc(S(C)(=O)=O)ccc2Oc2ccc(F)cc2F)c2cc(C(N)=O)[nH]c(=O)c12 [Example 42, 1-[2-(2,4-difluorophenoxy)-5-(methylsulfonyl)phenyl]-3-methyl-4-oxo-4,5-dihydro-2H-pyrrolo[3,4-c]pyridine-6-carboxamide]	7.65	7.24	< 5.52
Cc1[nH]c(-c2ccccc2Oc2ccccc2)c2cc(C(=O)NCCN3CCOCC3)[nH]c(=O)c12 [Example 27, 3-methyl-N-(2-morpholinoethyl)-4-oxo-1-(2-phenoxyphenyl)-4,5-dihydro-2H-pyrrolo[3,4-c]pyridine-6-carboxamide]	8.42	7.33	7.00
CCOC(=O)c1cc2c(-c3cc(NS(C)(=O)=O)ccc3Oc3ccccc3)[nH]c(C)c2c(=O)[nH]1 [Example 5, ethyl 3-methyl-1-(5-(methylsulfonamido)-2-phenoxyphenyl)-4-oxo-4,5-dihydro-2H-pyrrolo[3,4-c]pyridine-6-carboxylate]	8.84	8.02	7.33
CCS(=O)(=O)Nc1ccc(Oc2ccc(F)cc2F)c(-c2[nH]c(C)c3c(=O)[nH]ncc23)c1 [Example 79, N-[4-(2,4-difluorophenoxy)-3-(7-methyl-1-oxo-2,6-dihydro-1H-pyrrolo[3,4-d]pyridazin-5-yl)phenyl]ethanesulfonamide]	8.75	8.23	7.05

Second part, the compound after the results:

pKi (BRD4 (BDI_K57-E168))	pKi (BRD4 (BDII_E352-M457))	pEC50 [1]	Compound
7.37	7.77	6.29	Cc1[nH]c(-c2ccccc2Oc2ccccc2)c2cc(C(=O)Nc3ccncc3)[nH]c(=O)c12 [Example 28, 3-methyl-4-oxo-1-(2-phenoxyphenyl)-N-(pyridin-4-yl)-4,5-dihydro-2H-pyrrolo[3,4-c]pyridine-6-carboxamide]
8.52	7.61	7.17	COC(=O)c1cc2c(-c3ccccc3Oc3ccccc3)[nH]c(C)c2c(=O)[nH]1 [Example 1, methyl 3-methyl-4-oxo-1-(2-phenoxyphenyl)-4,5-dihydro-2H-pyrrolo[3,4-c]pyridine-6-carboxylate]
7.03	6.14	5.91	Cc1[nH]c(-c2ccccc2Oc2ccccc2)c2nc[nH]c(=O)c12 [Example 85, 5-methyl-7-(2-phenoxyphenyl)-3,6-dihydro-4H-pyrrolo[3,4-d]pyrimidin-4-one]
6.67	6.30	6.02	Cc1nc2c(-c3ccccc3Oc3ccccc3)[nH]c(C)c2c(=O)[nH]1 [Example 89, 2,5-dimethyl-7-(2-phenoxyphenyl)-3,6-dihydro-4H-pyrrolo[3,4-d]pyrimidin-4-one]
7.82	7.50	7.05	Cc1[nH]c(-c2ccccc2Oc2ccccc2)c2cc(CO)[nH]c(=O)c12 [Example 18, 6-(hydroxymethyl)-3-methyl-1-(2-phenoxyphenyl)-2H-pyrrolo[3,4-c]pyridin-4(5H) one]
8.00	6.86	6.80	Cc1noc(-c2cc3c(-c4ccccc4Oc4ccccc4)[nH]c(C)c3c(=O)[nH]2)n1 [Example 61, 3-methyl-6-(3-methyl-1,2,4-oxadiazol-5-yl)-1-(2-phenoxyphenyl)-2H-pyrrolo[3,4-c]pyridin-4(5H)-one]
8.37	7.92	7.50	Cc1[nH]c(-c2ccccc2Oc2ccccc2)c2cc(C(N)=O)[nH]c(=O)c12 [Example 11, 3-methyl-4-oxo-1-(2-phenoxyphenyl)-4,5-dihydro-2H-pyrrolo[3,4-c]pyridine-6-carboxamide]
7.89	6.94	6.95	Cc1[nH]c(-c2ccccc2Oc2ccccc2)c2cc(-c3nc(-c4cccnc4)no3)[nH]c(=O)c12 [Example 60, 3-methyl-1-(2-phenoxyphenyl)-6-(3-(pyridin-3-yl)-1,2,4-oxadiazol-5-yl)-2H-pyrrolo[3,4-c]pyridin-4(5H)-one]
7.08	5.93	< 5.52	CCOC(=O)c1nc2c(-c3ccccc3Oc3ccccc3)[nH]c(C)c2c(=O)[nH]1 [Example 87, ethyl 5-methyl-4-oxo-7-(2-phenoxyphenyl)-4,6-dihydro-3H-pyrrolo[3,4-d]pyrimidine-2-carboxylate]
7.43	7.01	6.12	Cc1[nH]c(-c2ccccc2Oc2ccccc2)c2cc(C(=O)NC(C)(C)C#N)[nH]c(=O)c12 [Example 52, N-(2-cyanopropan-2-yl)-3-methyl-4-oxo-1-(2-phenoxyphenyl)-4,5-dihydro-2H-pyrrolo[3,4-c]pyridine-6-carboxamide]
